Reference: the Kinase Knowledgebase extract (Sharma et al. 2016)

Experiments:
MAPK14 (BALB/cJ mice) = experiment: In vivo Inhibition of LPS-induced TNF-alpha Production; conditions: dose or concentration not given here
MAPK14 (human) = MAPK14 (human) (UniProt Q16539); experiment: In vitro Inhibition of TNF-alpha Production in PBMC Cells
MAPK14 (human), sequence (Q16539 whole entry, looked up): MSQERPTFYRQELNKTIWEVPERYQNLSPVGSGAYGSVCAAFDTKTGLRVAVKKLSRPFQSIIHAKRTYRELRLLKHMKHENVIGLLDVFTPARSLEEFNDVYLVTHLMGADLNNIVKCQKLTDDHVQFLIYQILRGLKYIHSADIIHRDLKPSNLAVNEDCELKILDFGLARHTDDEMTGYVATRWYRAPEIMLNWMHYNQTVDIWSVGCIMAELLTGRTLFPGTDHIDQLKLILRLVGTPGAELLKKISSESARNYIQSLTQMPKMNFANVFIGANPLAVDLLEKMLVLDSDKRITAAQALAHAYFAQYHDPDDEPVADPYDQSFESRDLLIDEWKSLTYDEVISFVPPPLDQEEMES

In the case of `COC(=O)c1c(-c2ccc(F)cc2)c(-c2ccncc2)c(N2CCN(CC3CC3)CC2)n1C`, the inhibition (MAPK14 (BALB/cJ mice)) is reported as 66.3% and the IC50 (MAPK14 (human)) is reported as 269 nM.

`CN(Cc1ccccc1)Cc1[nH]cc(-c2ccc(F)cc2)c1-c1ccncc1` was tested, and the inhibition (MAPK14 (BALB/cJ mice)) was 37% and the IC50 (MAPK14 (human)) was 91 nM.

Compound `CCOC(=O)c1[nH]cc(-c2ccncc2)c1-c1cc(F)cc(F)c1` has an inhibition (MAPK14 (BALB/cJ mice)) of -14% and an IC50 (MAPK14 (human)) of 114 nM.

In the case of `COC(=O)c1c(-c2ccc(F)cc2)c(-c2ccncc2)c(C#CCN2CCN(C)CC2)n1C`, the inhibition (MAPK14 (BALB/cJ mice)) is reported as 57% and the IC50 (MAPK14 (human)) is reported as 7.7 nM.

`COC(=O)c1c(-c2ccc(F)cc2)c(-c2ccncc2)c(NC2CCNCC2)n1C` showed an inhibition (MAPK14 (BALB/cJ mice)) of 7% and an IC50 (MAPK14 (human)) of 315 nM.

`CNC(=O)c1c(-c2ccc(F)cc2)c(-c2ccncc2)c(N2CCNCC2)n1C` was tested, and the inhibition (MAPK14 (BALB/cJ mice)) was -7% and the IC50 (MAPK14 (human)) was 106 nM.

With `COC(=O)c1c(-c2ccc(F)cc2)c(-c2ccncc2)c(NCCN(C)C)n1C` the inhibition (MAPK14 (BALB/cJ mice)) was -43% and the IC50 (MAPK14 (human)) was 98 nM.

In the case of `CN(CCO)Cc1[nH]cc(-c2ccc(F)cc2)c1-c1ccncc1`, the inhibition (MAPK14 (BALB/cJ mice)) is reported as -8% and the IC50 (MAPK14 (human)) is reported as 3 nM.

`COC(=O)c1c(-c2ccc(F)cc2)c(-c2ccncc2)c(N2CCN(c3cccc(C(C)=O)c3)CC2)n1C` showed an inhibition (MAPK14 (BALB/cJ mice)) of -21% and an IC50 (MAPK14 (human)) of 8 nM.

For `COC(=O)c1c(-c2ccncc2)c(-c2ccc(F)cc2)c(C#CCN2CCOCC2)n1C`, the inhibition (MAPK14 (BALB/cJ mice)) was 47% and the IC50 (MAPK14 (human)) was 788 nM.

`Fc1ccc(-c2c[nH]c(CN3CCNCC3)c2-c2ccncc2)cc1` was tested, and the inhibition (MAPK14 (BALB/cJ mice)) was -41% and the IC50 (MAPK14 (human)) was 63 nM.

In the case of `CCCc1[nH]cc(-c2ccc(F)cc2)c1-c1ccnc(N[C@@H](C)c2ccccc2)n1`, the inhibition (MAPK14 (BALB/cJ mice)) is reported as -19% and the IC50 (MAPK14 (human)) is reported as 10 nM.

`C[C@H](Nc1nccc(-c2cn(CCN3CCOCC3)cc2-c2ccc(F)cc2)n1)c1ccccc1` showed an inhibition (MAPK14 (BALB/cJ mice)) of -21% and an IC50 (MAPK14 (human)) of 4 nM.

Work on `CCOC(=O)c1c(-c2cccc(C(F)(F)F)c2)c(-c2ccncc2)c(N2CCNCC2)n1C` yielded an inhibition (MAPK14 (BALB/cJ mice)) of 83% and an IC50 (MAPK14 (human)) of 21 nM.

`CNC(=O)c1c(-c2ccc(F)cc2)c(-c2ccncc2)c(Br)n1C` showed an inhibition (MAPK14 (BALB/cJ mice)) of 53% and an IC50 (MAPK14 (human)) of 543 nM.

`CCNC(=O)c1[nH]cc(-c2ccc(F)cc2)c1-c1ccncc1` showed an inhibition (MAPK14 (BALB/cJ mice)) of -24% and an IC50 (MAPK14 (human)) of 209 nM.

Compound `Fc1ccc(-c2cn3c(c2-c2ccncc2)CN(Cc2ccccc2)CC3)cc1` has an inhibition (MAPK14 (BALB/cJ mice)) of -6% and an IC50 (MAPK14 (human)) of 11 nM.

In the case of `COC(=O)c1c(-c2ccc(F)cc2)c(-c2ccncc2)c(NCc2ccncc2)n1C`, the inhibition (MAPK14 (BALB/cJ mice)) is reported as -22% and the IC50 (MAPK14 (human)) is reported as 145 nM.

With `O=C1c2c(-c3ccncc3)c(-c3ccc(F)cc3)cn2C(=O)N1Cc1ccccc1` the inhibition (MAPK14 (BALB/cJ mice)) was 51% and the IC50 (MAPK14 (human)) was 26 nM.

Work on `COC(=O)c1c(-c2ccc(F)cc2)c(-c2ccncc2)c(-c2ccc(N(C)C)cc2)n1C` yielded an inhibition (MAPK14 (BALB/cJ mice)) of -22% and an IC50 (MAPK14 (human)) of 120 nM.

In the case of `O=C(NCc1ccccc1)c1[nH]cc(-c2ccc(F)cc2)c1-c1ccncc1`, the inhibition (MAPK14 (BALB/cJ mice)) is reported as -60% and the IC50 (MAPK14 (human)) is reported as 14 nM.

`COC(=O)c1c(-c2ccc(F)cc2)c(-c2ccncc2)c(NCCN2CCOCC2)n1C` showed an inhibition (MAPK14 (BALB/cJ mice)) of 44% and an IC50 (MAPK14 (human)) of 50 nM.

`COC(=O)c1c(-c2ccncc2)c(-c2ccc(F)cc2)c(NCCN2CCOCC2)n1C` was tested, and the inhibition (MAPK14 (BALB/cJ mice)) was 91% and the IC50 (MAPK14 (human)) was 10000 nM.

Work on `CC(=O)c1c(-c2ccc(F)cc2)c(-c2ccncc2)c(N2CCN(C)CC2)n1C` yielded an inhibition (MAPK14 (BALB/cJ mice)) of 40% and an IC50 (MAPK14 (human)) of 370 nM.

With `CN(C)C(=O)c1c(-c2ccc(F)cc2)c(-c2ccncc2)cn1C` the inhibition (MAPK14 (BALB/cJ mice)) was 33% and the IC50 (MAPK14 (human)) was 1380 nM.

With `COC(=O)c1c(-c2ccc(F)cc2)c(-c2ccncc2)c(C2=CCNCC2)n1C` the inhibition (MAPK14 (BALB/cJ mice)) was 96% and the IC50 (MAPK14 (human)) was 72 nM.

In the case of `Cn1cc(-c2ccncc2)c(-c2ccc(F)cc2)c1-c1cnco1`, the inhibition (MAPK14 (BALB/cJ mice)) is reported as 53% and the IC50 (MAPK14 (human)) is reported as 59 nM.

For `Cn1cc(-c2ccncc2)c(-c2ccc(F)cc2)c1CNC(=O)Nc1ccccc1`, the inhibition (MAPK14 (BALB/cJ mice)) was 82% and the IC50 (MAPK14 (human)) was 27 nM.

Compound `Cn1cc(-c2ccc(F)cc2)c(-c2ccncc2)c1CO` has an inhibition (MAPK14 (BALB/cJ mice)) of 65% and an IC50 (MAPK14 (human)) of 169 nM.

With `C=CC#Cc1c(-c2ccc(F)cc2)c(-c2ccncc2)c(C(=O)OC)n1C` the inhibition (MAPK14 (BALB/cJ mice)) was -20% and the IC50 (MAPK14 (human)) was 34 nM.

For `COC(=O)c1c(-c2ccncc2)c(-c2ccc(F)cc2)cn1C`, the inhibition (MAPK14 (BALB/cJ mice)) was -56% and the IC50 (MAPK14 (human)) was 55 nM.

`COC(=O)C1Cn2cc(-c3ccncc3)c(-c3ccc(F)cc3)c2C1=O` (stereo unspecified) showed an inhibition (MAPK14 (BALB/cJ mice)) of 44.7% and an IC50 (MAPK14 (human)) of 29 nM.

`O=C1CCn2c(Br)c(-c3ccncc3)c(-c3ccc(F)cc3)c21` showed an inhibition (MAPK14 (BALB/cJ mice)) of 31% and an IC50 (MAPK14 (human)) of 819 nM.

In the case of `Cn1c(Br)c(-c2ccncc2)c(-c2ccc(F)cc2)c1C#N`, the inhibition (MAPK14 (BALB/cJ mice)) is reported as 22% and the IC50 (MAPK14 (human)) is reported as 625 nM.

Compound `COC(=O)c1c(-c2ccc(F)cc2)c(-c2ccncc2)c(NCCN2CCCC2)n1CCN1CCOCC1` has an inhibition (MAPK14 (BALB/cJ mice)) of 23% and an IC50 (MAPK14 (human)) of 969 nM.

For `Cn1c(C#N)c(-c2ccc(F)cc2)c(-c2ccncc2)c1N1CCNCC1`, the inhibition (MAPK14 (BALB/cJ mice)) was 67% and the IC50 (MAPK14 (human)) was 18 nM.

With `CON(C)C(=O)c1c(-c2ccc(F)cc2)c(-c2ccncc2)c(N2CCN(C(=O)OC(C)(C)C)CC2)n1C` the inhibition (MAPK14 (BALB/cJ mice)) was 45% and the IC50 (MAPK14 (human)) was 72 nM.

With `CCOC(=O)c1c(-c2cc(F)cc(F)c2)c(-c2ccncc2)cn1C` the inhibition (MAPK14 (BALB/cJ mice)) was -31% and the IC50 (MAPK14 (human)) was 33 nM.

`CCN1C(=O)c2c(-c3ccncc3)c(-c3ccc(F)cc3)cn2C1=O` was tested, and the inhibition (MAPK14 (BALB/cJ mice)) was 72% and the IC50 (MAPK14 (human)) was 401 nM.

With `OCc1[nH]cc(-c2ccc(F)cc2)c1-c1ccncc1` the inhibition (MAPK14 (BALB/cJ mice)) was -72% and the IC50 (MAPK14 (human)) was 101 nM.

`CCOC(=O)c1[nH]cc(-c2ccncc2)c1-c1ccc(F)c(F)c1` gave an inhibition (MAPK14 (BALB/cJ mice)) of -32% and an IC50 (MAPK14 (human)) of 560 nM.

With `COC(=O)C1CCn2c(NCCN3CCOCC3)c(-c3ccncc3)c(-c3ccc(F)cc3)c2C1=O` (stereo unspecified) the inhibition (MAPK14 (BALB/cJ mice)) was 71% and the IC50 (MAPK14 (human)) was 77 nM.

For `CCn1cc(-c2ccncc2)c(-c2ccc(F)cc2)c1C(=O)OC`, the inhibition (MAPK14 (BALB/cJ mice)) was 53% and the IC50 (MAPK14 (human)) was 108 nM.

Work on `CCOC(=O)c1[nH]cc(-c2ccncc2)c1-c1ccccc1` yielded an inhibition (MAPK14 (BALB/cJ mice)) of 58% and an IC50 (MAPK14 (human)) of 149 nM.

With `CCOC(=O)c1[nH]cc(-c2ccncc2)c1-c1cccc(C(F)(F)F)c1` the inhibition (MAPK14 (BALB/cJ mice)) was -8% and the IC50 (MAPK14 (human)) was 96 nM.

Work on `CCOC(=O)c1c(-c2ccc(F)cc2)c(-c2ccncc2)c(CCCOCc2ccccc2)n1C` yielded an inhibition (MAPK14 (BALB/cJ mice)) of 51% and an IC50 (MAPK14 (human)) of 248 nM.

Compound `CN(C)C(=O)c1c(-c2ccc(F)cc2)c(-c2ccncc2)c(Br)n1C` has an inhibition (MAPK14 (BALB/cJ mice)) of -41% and an IC50 (MAPK14 (human)) of 301 nM.

`CCOC(=O)c1c(-c2ccc(C)cc2)c(-c2ccncc2)c(N2CCNCC2)n1C` was tested, and the inhibition (MAPK14 (BALB/cJ mice)) was 79% and the IC50 (MAPK14 (human)) was 60 nM.

For `CCCc1[nH]cc(-c2ccc(F)cc2)c1-c1ccnc(N[C@@H](C)COC)n1`, the inhibition (MAPK14 (BALB/cJ mice)) was -35% and the IC50 (MAPK14 (human)) was 86 nM.

`COC(=O)c1c(-c2ccncc2)c(-c2ccc(F)cc2)c(NCCc2ccccc2)n1C` showed an inhibition (MAPK14 (BALB/cJ mice)) of 58% and an IC50 (MAPK14 (human)) of 1020 nM.

With `CCOC(=O)N1CCN(c2c(-c3ccncc3)c(-c3ccc(F)cc3)c(C(=O)OC)n2C)CC1` the inhibition (MAPK14 (BALB/cJ mice)) was 8% and the IC50 (MAPK14 (human)) was 30 nM.

Compound `Fc1ccc(-c2c[nH]c(CNCc3ccncc3)c2-c2ccncc2)cc1` has an inhibition (MAPK14 (BALB/cJ mice)) of 47% and an IC50 (MAPK14 (human)) of 74 nM.

Compound `COC(=O)c1c(-c2ccc(F)cc2)c(-c2ccncc2)c(N=CN(C)C)n1C` has an inhibition (MAPK14 (BALB/cJ mice)) of 6% and an IC50 (MAPK14 (human)) of 5 nM.

`CCOC(=O)c1c(-c2ccc(F)cc2)c(-c2ccncc2)c(CCCN2CCOCC2)n1C` gave an inhibition (MAPK14 (BALB/cJ mice)) of 34% and an IC50 (MAPK14 (human)) of 756 nM.

For `CCOC(=O)c1[nH]cc(-c2ccncc2)c1-c1ccc(C)cc1`, the inhibition (MAPK14 (BALB/cJ mice)) was -218% and the IC50 (MAPK14 (human)) was 136 nM.

`O=C1CCCn2c(NCCN3CCOCC3)c(-c3ccncc3)c(-c3ccc(F)cc3)c21` showed an inhibition (MAPK14 (BALB/cJ mice)) of 51% and an IC50 (MAPK14 (human)) of 2560 nM.

Work on `COC(=O)c1c(-c2ccncc2)c(-c2ccc(F)cc2)c(C#CCCN2CCOCC2)n1C` yielded an inhibition (MAPK14 (BALB/cJ mice)) of -4% and an IC50 (MAPK14 (human)) of 32 nM.

`COC(=O)c1c(-c2ccc(F)cc2)c(-c2ccncc2)c(N=C(c2ccccc2)c2ccccc2)n1C` gave an inhibition (MAPK14 (BALB/cJ mice)) of -49% and an IC50 (MAPK14 (human)) of 52 nM.
